Laboratory results: PubChem BioAssay AID1963868 (Molecular Pharmacology Branch, DTP, NCI, 2024)

System: KRAS PDC tumor spheroids (HUVEC+MSC), viability
Test: Anticancer human tumor 254851-301-R-J1-PDC patient-derived colon carcinoma cell line growth inhibition [KRAS2]
Conditions: for viability, T/C: stronger effect = lower value
Method in brief: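 KRAS-mutant tumor cells were grown as spheroids with HUVEC endothelial cells and human MSCs as stroma. Targeted agents were tested alone and with KRAS pathway inhibitors. Doses started at or near clinical Cmax, or 10 microM, descending half-log.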

[1] = curve of first compound, second compound 0.1 µM
[2] = curve of first compound, second compound 0.316 µM
[3] = curve of first compound, second compound 1 µM
[4] = curve of first compound, second compound 3.16 µM
[5] = second compound 0.1 µM, first compound 0.0316 µM
[6] = second compound 0.1 µM, first compound 0.1 µM
[7] = second compound 0.316 µM, first compound 0.0316 µM
[8] = second compound 0.316 µM, first compound 0.1 µM
[9] = second compound 1 µM, first compound 0.0316 µM
[10] = second compound 1 µM, first compound 0.1 µM
[11] = second compound 3.16 µM, first compound 0.0316 µM
[12] = second compound 3.16 µM, first compound 0.1 µM
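Also: spheroids exposed to compounds for seven days before readout.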
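For viability, T/C in this document: 100% = DMSO vehicle control luminescence of the spheroids.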

In the case of `Cn1nccc1Nc1nccc(-c2cc3c(s2)C(C)(C)N(CCN2CCOCC2)C3=O)n1` + C=CC(=O)N1CCN(c2nc(OCC3CCCN3C)nc3c2CCN(c2cccc4cccc(C)c24)C3)CC1CC#N, the IC50 (curve of first compound, second compound 0.0316 µM) is reported as 2320 nM, the IC50 [1] is reported as 3140 nM and the IC50 [2] is reported as 2540 nM. The IC50 [3] was 1660 nM, the IC50 [4] was 1300 nM and the viability, T/C (second compound 0.0316 µM, first compound 0.0316 µM) was 99.1%. It also gave a viability, T/C (second compound 0.0316 µM, first compound 0.1 µM) of 112%, a viability, T/C (second compound 0.0316 µM, first compound 0.316 µM) of 89.8% and a viability, T/C (second compound 0.0316 µM, first compound 1 µM) of 82%. The viability, T/C (second compound 0.0316 µM, first compound 3.16 µM) was 38.4%, the viability, T/C (second compound 0.0316 µM, first compound 10 µM) was 4.17% and the viability, T/C [5] was 89.9%. The viability, T/C [6] was 89.9%, the viability, T/C (second compound 0.1 µM, first compound 0.316 µM) was 95.3% and the viability, T/C (second compound 0.1 µM, first compound 1 µM) was 94.1%. The viability, T/C (second compound 0.1 µM, first compound 3.16 µM) was 49.8%, the viability, T/C (second compound 0.1 µM, first compound 10 µM) was 3.82% and the viability, T/C [7] was 112%. The viability, T/C [8] was 92.3%, the viability, T/C (second compound 0.316 µM, first compound 0.316 µM) was 91.2% and the viability, T/C (second compound 0.316 µM, first compound 1 µM) was 75.9%. It also gave a viability, T/C (second compound 0.316 µM, first compound 3.16 µM) of 43%, a viability, T/C (second compound 0.316 µM, first compound 10 µM) of 3.62% and a viability, T/C [9] of 71.3%. For the same compound, the viability, T/C [10] was 74.5%, the viability, T/C (second compound 1 µM, first compound 0.316 µM) was 68.6% and the viability, T/C (second compound 1 µM, first compound 1 µM) was 66.7%. It also gave a viability, T/C (second compound 1 µM, first compound 3.16 µM) of 29.3%, a viability, T/C (second compound 1 µM, first compound 10 µM) of 2.36% and a viability, T/C [11] of 81.9%. It also gave a viability, T/C [12] of 74.3%, a viability, T/C (second compound 3.16 µM, first compound 0.316 µM) of 63% and a viability, T/C (second compound 3.16 µM, first compound 1 µM) of 62.4%. For the same compound, the viability, T/C (second compound 3.16 µM, first compound 3.16 µM) was 11.8% and the viability, T/C (second compound 3.16 µM, first compound 10 µM) was 0.25%.

`CC(=O)Nc1cccc(-n2c(=O)n(C3CC3)c(=O)c3c(Nc4ccc(I)cc4F)n(C)c(=O)c(C)c32)c1` was tested, and the viability, T/C (compound 0.0001 µM) was 105% [middle of 5 runs], the viability, T/C (compound 0.000316 µM) was 96.8% [middle of 5 runs] and the viability, T/C (compound 0.001 µM) was 91.9% [middle of 5 runs]. The viability, T/C (compound 0.00316 µM) was 75.8% [middle of 5 runs], the viability, T/C (compound 0.01 µM) was 26.8% [middle of 5 runs] and the viability, T/C (compound 0.0316 µM) was 3.1% [middle of 5 runs]. The IC50 (curve of compound) was 5.78 nM [middle of 5 runs].

In the case of `O=C(c1cc(Cc2n[nH]c(=O)c3ccccc23)ccc1F)N1CCN(C(=O)C2CC2)CC1`, the viability, T/C (compound 0.0316 µM) is reported as 107% [middle of 5 runs], the viability, T/C (compound 0.1 µM) is reported as 108% [middle of 5 runs] and the viability, T/C (compound 0.316 µM) is reported as 99.5% [middle of 5 runs]. The viability, T/C (compound 1 µM) was 99.5% [middle of 5 runs], the viability, T/C (compound 3.16 µM) was 97.4% [middle of 5 runs] and the viability, T/C (compound 10 µM) was 99.1% [middle of 5 runs]. For the same compound, the IC50 (curve of compound) was greater than 10000 nM.

Work on `CC(C)n1nc(-c2ccc3oc(N)nc3c2)c2c(N)ncnc21` + CNCc1ccccc1-c1csc(C(C)Nc2nc(C)nc3cc(OC)c(OC)cc23)c1 yielded an IC50 [1] of 18.6 nM, an IC50 [2] of 19.7 nM and an IC50 [3] of 17.4 nM. It also gave an IC50 [4] of 6.04 nM, an IC50 (curve of first compound, second compound 10 µM) of less than 0.316 nM and a viability, T/C (second compound 0.1 µM, first compound 0.000316 µM) of 110%. The viability, T/C (second compound 0.1 µM, first compound 0.001 µM) was 98.6%, the viability, T/C (second compound 0.1 µM, first compound 0.00316 µM) was 89.2% and the viability, T/C (second compound 0.1 µM, first compound 0.01 µM) was 64.8%. The viability, T/C [5] was 36.8%, the viability, T/C [6] was 23.3% and the viability, T/C (second compound 0.316 µM, first compound 0.000316 µM) was 96.1%. It also gave a viability, T/C (second compound 0.316 µM, first compound 0.001 µM) of 105%, a viability, T/C (second compound 0.316 µM, first compound 0.00316 µM) of 82% and a viability, T/C (second compound 0.316 µM, first compound 0.01 µM) of 73.4%. The viability, T/C [7] was 33.8%, the viability, T/C [8] was 23.4% and the viability, T/C (second compound 1 µM, first compound 0.000316 µM) was 88.6%. It also gave a viability, T/C (second compound 1 µM, first compound 0.001 µM) of 95%, a viability, T/C (second compound 1 µM, first compound 0.00316 µM) of 80.4% and a viability, T/C (second compound 1 µM, first compound 0.01 µM) of 68%. The viability, T/C [9] was 31.4%, the viability, T/C [10] was 19.5% and the viability, T/C (second compound 3.16 µM, first compound 0.000316 µM) was 81.1%. The viability, T/C (second compound 3.16 µM, first compound 0.001 µM) was 76.7%, the viability, T/C (second compound 3.16 µM, first compound 0.00316 µM) was 53.8% and the viability, T/C (second compound 3.16 µM, first compound 0.01 µM) was 45.9%. It also gave a viability, T/C [11] of 25%, a viability, T/C [12] of 9.11% and a viability, T/C (second compound 10 µM, first compound 0.000316 µM) of 0.21%. For the same compound, the viability, T/C (second compound 10 µM, first compound 0.001 µM) was 0.19%, the viability, T/C (second compound 10 µM, first compound 0.00316 µM) was 0.17% and the viability, T/C (second compound 10 µM, first compound 0.01 µM) was 0.14%. It also gave a viability, T/C (second compound 10 µM, first compound 0.0316 µM) of 0.14% and a viability, T/C (second compound 10 µM, first compound 0.1 µM) of 0.19%.

For `CCN1CCN(Cc2ccc(Nc3ncc(F)c(-c4cc(F)c5nc(C)n(C(C)C)c5c4)n3)nc2)CC1`, the viability, T/C (compound 0.00316 µM) was 98.6% [middle of 5 runs], the viability, T/C (compound 0.01 µM) was 101% [middle of 5 runs] and the viability, T/C (compound 0.0316 µM) was 90.3% [middle of 5 runs]. For the same compound, the viability, T/C (compound 0.1 µM) was 83.7% [middle of 5 runs], the viability, T/C (compound 0.316 µM) was 69.6% [middle of 5 runs] and the viability, T/C (compound 1 µM) was 42% [middle of 5 runs].
